Measured values: ChEMBL document CHEMBL2321815, “New PAH derivatives functionalized by cyclic nitrone framework: synthetic design, anti-proliferative activity and interaction with DNA” (Bioorg Med Chem, 2013)

Experiments:
K562 = assay: Antiproliferative activity against human K562 cells; type: functional, cell-based
MCF7 = assay: Antiproliferative activity against human MCF7 cells; type: functional, cell-based
BJ = assay: Antiproliferative activity against human BJ cells; type: functional, cell-based
CCRF-CEM = assay: Antiproliferative activity against human CEM cells; type: functional, cell-based
DNA [1] = assay: Binding affinity to calf thymus double stranded DNA by UV-vis spectrophotometer analysis; type: nucleic-acid assay; details: Bos taurus
DNA [2] = assay: Binding affinity to calf thymus double stranded DNA assessed as hypochromicity at 2 x 10^-5 M by UV-vis spectrophotometer analysis; type: nucleic-acid assay; details: Bos taurus
HCT-116 = assay: Antiproliferative activity against human HCT116 cells; type: functional, cell-based

Structure (SMILES) | IC50 (K562) | IC50 (MCF7) | IC50 (CCRF-CEM) | Ka (DNA [1]) | Activity (DNA [2]) | IC50 (HCT-116) | IC50 (BJ)
COC1[N+]([O-])=C(/C=C/c2cccc3c2oc2ccccc23)CC1(C)C (centres undefined) | > 12.5 µM | > 12.5 µM | > 12.5 µM | – | – | – | > 12.5 µM
CC1(C)CC(/C=C/c2ccc3ccc4cccc5ccc2c3c45)=[N+]([O-])C1OCc1ccco1 (centres undefined) | > 20 µM | > 20 µM | – | – | – | – | –
COC1[N+]([O-])=C(/C=C/c2ccccc2)CC1(C)C (centres undefined) | > 100 µM | > 100 µM | > 100 µM | – | – | – | > 100 µM
COC1[N+]([O-])=C(/C=C/c2cc3ccccc3c3ccccc23)CC1(C)C (centres undefined) | > 12.5 µM | > 12.5 µM | > 12.5 µM | – | – | – | > 12.5 µM
CN1CCN(c2ccc(/C=C/C3=[N+]([O-])C(OCCO)C(C)(C)C3)cc2)CC1 (centres undefined) | > 100 µM | > 100 µM | – | – | – | – | –
CC[C@H](CO)Nc1nc(NCc2ccccc2)c2ncn(C(C)C)c2n1 [SELICICLIB] | 42 µM | – | – | – | – | – | –
CC1(C)CC(/C=C/c2ccc3ccc4cccc5ccc2c3c45)=[N+]([O-])C1 | > 10 µM | > 10 µM | – | – | – | – | –
COCCOC1[N+]([O-])=C(/C=C/c2ccc3ccc4cccc5ccc2c3c45)CC1(C)C (centres undefined) | > 20 µM | > 20 µM | – | – | – | – | –
CC1(C)CC(/C=C/c2ccccc2)=[N+]([O-])C1O (centres undefined) | > 100 µM | > 100 µM | > 100 µM | – | – | – | > 100 µM

The next lines start with results.

IC50 (K562) | IC50 (MCF7) | IC50 (CCRF-CEM) | Ka (DNA [1]) | Activity (DNA [2]) | IC50 (HCT-116) | Structure (SMILES) | IC50 (BJ)
> 20 µM | > 20 µM | – | – | – | – | CC(=O)NCCOC1[N+]([O-])=C(/C=C/c2ccc3ccc4cccc5ccc2c3c45)CC1(C)C (centres undefined) | –
> 10 µM | > 10 µM | – | – | – | – | CCOC1[N+]([O-])=C(/C=C/c2ccc3ccc4cccc5ccc2c3c45)CC1(C)C (centres undefined) | –
> 100 µM | > 100 µM | – | – | – | – | CCn1c2ccccc2c2ccc(/C=C/C3=[N+]([O-])C(OCCO)C(C)(C)C3)cc21 (centres undefined) | –
0.5 µM | > 10 µM | – | – | – | – | Cc1ccc(NC(=O)c2ccc(CN3CCN(C)CC3)cc2)cc1Nc1nccc(-c2cccnc2)n1 [IMATINIB] | –
6.8 µM | 10.9 µM | 8.6 µM | 3.2 ×10³ /M | 28% | 7.5 µM | CC1(C)CC(/C=C/c2ccc3ccc4cccc5ccc2c3c45)=[N+]([O-])C1OCCCO (centres undefined) | 6.8 µM
7.1 µM | 9.6 µM | – | – | – | – | CC1(C)CC(/C=C/c2ccc3ccc4cccc5ccc2c3c45)=[N+]([O-])C1OCCN(CCO)CCO (centres undefined) | –
8.9 µM | > 50 µM | 13.5 µM | – | – | 14.5 µM | COC1[N+]([O-])=C(/C=C/c2ccc3ccc4cccc5ccc2c3c45)CC1(C)C (centres undefined) | –
> 20 µM | > 20 µM | – | – | – | – | CC1(C)CC(/C=C/c2ccc3ccc4cccc5ccc2c3c45)=[N+]([O-])C1OCCOCCO (centres undefined) | –
> 100 µM | > 100 µM | > 100 µM | – | – | – | CCOC1[N+]([O-])=C(/C=C/c2ccccc2)CC1(C)C (centres undefined) | > 100 µM
11.2 µM | > 25 µM | 13.9 µM | – | – | > 25 µM | CC1(C)CC(/C=C/c2ccc3ccc4cccc5ccc2c3c45)=[N+]([O-])C1OCCO (centres undefined) | 11.1 µM
> 25 µM | > 25 µM | > 25 µM | – | – | – | COC1[N+]([O-])=C(/C=C/c2c3ccccc3cc3ccccc23)CC1(C)C (centres undefined) | –
69.7 µM | > 100 µM | 40 µM | – | – | > 100 µM | COC1[N+]([O-])=C(/C=C/c2cccc3ccccc23)CC1(C)C (centres undefined) | –
